Data taken from US5563176A (priority 1994, dated 1996).
Like-named read-outs stand apart in the source and are kept apart here.

Experiments:
[1] = test system: L1210 DDPt (cis-plat) cells; experiment: sensitivity of mdr lines, L1210 DDPt; type: cell-based; conditions: Mus musculus
SL-2, murine (thymic) = experiment: inhibition of thymidine incorporation after two hour exposure, SL-2; type: cell-based; conditions: Mus musculus, 2 h; Table 1; SL-2, two hour exposure
Procedure: (§1) To assess cytotoxic effects, various concentrations of illudins were added to cultures of cells for 48 hours, then cell growth/viability was determined by trypan blue exclusion. As an alternative to 48 hour continuous exposure studies, cells were plated in liquid culture in 96 well plates, exposed to various concentrations of illudins for 2 hours, pulsed with [^3 H]-thymidine for one to two hours and harvested onto glass filters. The filter papers were added to vials containing scintillation fluid and residual radioactivity determined in a beta (scintillation) counter.
(§2) two hour exposure to the toxins (N - 3).

KB C-1 (gp170+) cells = experiment: sensitivity of mdr lines, KB C-1; type: cell-based; conditions: KBC-1
[2] = test system: human lung adenocarcinoma MV522; conditions: in vivo
8392 cells (B-cell) = experiment: cells; type: cell-based; conditions: 2 h
MV522 = experiment: cells; type: cell-based; conditions: Homo sapiens, MV522, 48 h, read-out: 48 hour IC50
[3] = test system: Molt-4 (human T-cell leukemia) xenograft; experiment: Molt-4 xenograft in athymic Balb/c nu/nu mice; type: in vivo; conditions: 30 μg/kg, nude mice; FIG. 5
[4] = test system: SL-2 leukemia/lymphoma cells; experiment: SL-2 syngeneic model, increased life span; type: in vivo, murine
Procedure: The efficacy of dehydroilludin M was then screened in a syngeneic model using murine SL-2 cells. SL-2 leukemia/lymphoma cells are injected subcutaneously and metastasized to lymph nodes, spleen, and lungs, and drug efficacy in this model is determined by increased life span (ILS). The SL-2 cells were administered at 2.5 million cells per animal and treatment was delayed. for 7 days until the tumors were palpable. Ibis is a relatively stringent test .against established tumors and contrasts to general drug screens in the SL-2 model which normally use only 0.5 million cells and starting drug treatment at 3 days. […] When administered IV at 0.03 mg/kg, twice a week, the ILS increased to 38%.

HL-60 ADR (gp150+) cells = experiment: sensitivity of mdr lines, HL-60 ADR; type: cell-based; conditions: Homo sapiens, HL60/ADR
[5] = test system: L1210 PAM (melphalan) cells; experiment: sensitivity of mdr lines, L1210 PAM; type: cell-based; conditions: Mus musculus
tolerability in mice = conditions: for MTD at 672 h: mouse, in vivo
HL-60 parent cells = experiment: sensitivity of mdr lines, HL-60 parent; type: cell-based; conditions: Homo sapiens
[6] = kinetics of the reaction with dilute HCl; type: physicochemical; conditions: dehydroilludin M
Text: Consistent with the above hypothesis are the results of the kinetics of the reaction of illudin M and dehydroilludin M with dilute HCl. […] In the reaction with dehydroilludin M, no intermediate could be detected by NMR spectroscopy. Presumably it formed too slowly and is too short-lived to be detected.

[7] = test system: HL60/MRI cells (human myeloid leukemia tumor cells)
CFU-GM = experiment: colony formation zone size, CFU-GM; conditions: for Zone Size: CFU-GM
[8] = test system: MCF7-wt parent (Breast) cells; experiment: sensitivity of mdr lines, MCF7-wt parent; type: cell-based; conditions: Homo sapiens; MCF7-wt Parent; read-out: Sensitivity of mdr lines
HL-60 cells = experiment: cells; type: cell-based, human
HL60 cells = experiment: cells; type: cell-based; conditions: Homo sapiens, HL-60, 48 h, read-out: 48 hour IC50
MDA-231, breast = experiment: cells; type: cell-based; conditions: Homo sapiens, MDA-MB-231, 2 h
L1210 BCNU cells = experiment: sensitivity of mdr lines, L1210 BCNU; type: cell-based; conditions: Mus musculus
8402, T-cell = experiment: inhibition of thymidine incorporation after two hour exposure, 8402; type: cell-based; conditions: 2 h, Table 1, 8402, two hour exposure
Procedure: as §1, §2

[9] = test system: L1210 CPA (cyclophos) cells; experiment: sensitivity of mdr lines, L1210 CPA; type: cell-based; conditions: Mus musculus
MV522 cells = experiment: cells; type: cell-based, human; conditions: Homo sapiens, MV522, 2 h, read-out: Two hour IC50
L1210 cells = experiment: L1210 in vivo, increased life span
Procedure: In collaboration, the in vivo effects of dehydroilludin M was again studied. Initially the compound was studied against L1210 cells. […] The dehydroilludin M was then administered as a 24 hour infusion (5.0 mg/kg); the ILS was 11%. After we became aware of the presence of the energy-dependent uptake in human myelocytic cells, dehydroilludin M was screened for in vivo efficacy against a syngeneic mouse AML model using C1498 cells and a single bolus of […], 2.5 mg/kg IP, produced an ILS of 35%.

[10] = test system: MDA-231 parent (Breast) cells; experiment: sensitivity of mdr lines, MDA-231 parent; type: cell-based; conditions: Homo sapiens, MDA-MB-231
MCF-7, breast = experiment: cells; type: cell-based, human; conditions: Homo sapiens, MCF7, 2 h
KB VBL (gp170+) cells = experiment: sensitivity of mdr lines, KB VBL; type: cell-based

CC1=C2C(=O)C(C)(C)C=C2C(=O)[C@](C)(O)C12CC2 [Dehydroilludin M]
IC50 [1]: 0.119 ± 0.039 µM | IC50 (SL-2, murine (thymic)): 5.24 µM | IC50 (KB C-1 (gp170+) cells): 0.08 ± 0.018 µM | efficacy in this model [2]: markedly increased the lifespan | IC50 (8392 cells (B-cell)): > 38 µM | IC50 (8392 cells (B-cell); read-out: Two hour IC50): 61.3 µM | IC50 (MV522): 0.313 ± 0.023 µM | complete regression of tumors [3]: three of five tumors underwent complete regression | ILS ([4]; 0.03 mg/kg IV twice a week): 38% | ILS ([4]; 30 mg/kg IP twice a week): 5% | ILS ([4]; 60 mg/kg IP twice a week): 18% | IC50 (HL-60 ADR (gp150+) cells): 0.191 ± 0.044 µM | IC50 [5]: 0.073 ± 0.031 µM | toxicity to mice (tolerability in mice; 60,000 μg/kg IP twice a week): nontoxic | MTD at 672 h (tolerability in mice; ip): 60 mg/kg | MTD at 672 h (tolerability in mice; iv): 1 mg/kg | IC50 (HL-60 parent cells): 0.163 ± 0.011 µM | half-life [6]: 46.1 h | k, first-order reaction [6]: 2×10^-4 min^1 | total tumor weight ([7]; 1 mg/kg IV, day 11): 114 ± 55 Mg | total tumor weight ([7]; 1 mg/kg IV, day 18): 883 ± 311 Mg | total tumor weight ([7]; 1 mg/kg IV, day 25): 2274 ± 992 Mg | total tumor weight ([7]; 1 mg/kg IV, day 32): 6025 ± 1772 Mg | total tumor weight ([7]; 1 mg/kg IV, day 40): 11507 ± 3707 Mg | total tumor weight ([7]; 3 mg/kg IV, day 11): 101 ± 40 Mg | total tumor weight ([7]; 3 mg/kg IV, day 18): 911 ± 309 Mg | total tumor weight ([7]; 3 mg/kg IV, day 25): 2127 ± 1092 Mg | total tumor weight ([7]; 3 mg/kg IV, day 32): 2854 ± 1260 Mg | total tumor weight ([7]; 3 mg/kg IV, day 40): 4784 ± 2303 Mg | tumor inhibition ([7]; IP twice a week, FIG. 6): dose related tumor inhibition | inhibition of tumor growth ([7]; IV twice a week, dose dependent): effective at inhibiting tumor growth | adverse effects (food or water intake, body weight) ([7]; highest amount of either drug, IV): did not display any evidence of adverse effect | Zone Size (CFU-GM; dilution 1/25): 200 | Zone Size (CFU-GM; dilution 1/125): 100 | Zone Size (CFU-GM; dilution 1/125 (repeat)): 50 | Zone Size (CFU-GM; dilution 1/625): 0 | effect on CFU-gm cells (CFU-GM; at concentrations inhibiting AML colony formation): no effect | IC50 [8]: 0.092 ± 0.015 µM | toxicity to HL-60 cells (HL-60 cells): less toxic | IC50 (HL60 cells): 0.296 ± 0.066 µM | IC50 (MDA-231, breast): 0.112 ± 0.017 µM | IC50 (L1210 BCNU cells): 0.1 ± 0.031 µM | IC50 (8402, T-cell): > 38 µM | IC50 [9]: 0.038 ± 0.015 µM | IC50 (MV522 cells): 1.83 µM | ILS (L1210 cells; 2.5 mg/kg IP daily for 5 days): 9% | ILS (L1210 cells; 24 hour infusion (5.0 mg/kg)): 11% | IC50 [10]: 0.054 ± 0.007 µM | IC50 (MCF-7, breast): 0.653 ± 0.065 µM | IC50 (KB VBL (gp170+) cells): 0.078 ± 0.019 µM
